10 compounds from ChEMBL document CHEMBL5352401, “Novel cudraisoflavone J derivatives as potent neuroprotective agents for the treatment of Parkinson's disease via the activation of Nrf2/HO-1 signaling” (Eur J Med Chem, 2022) can be followed below.

Test [1] concerns PC-12. As to the kind of experiment: Cytotoxicity in rat PC-12 cells assessed as cell viability measured at 10 to 30 uM for 24 hrs by MTT assay. In kind it is functional, cell-based. As to conditions: dose 10-30 µM. A general note: Tetrazolium dyes change colour on reduction, which living cells bring about.
Test [2] concerns PC-12. The test is described as follows: Cytotoxicity in rat PC-12 cells assessed as cell viability incubated at 0.1 to 30 uM for 24 hrs by MTT assay relative to control. Type of test: functional. As to conditions: dose 0.1-30 µM.
For test [3], the system named is PC-12. As to the kind of experiment: Neuroprotective activity against 6-OHDA-induced cytotoxicity in rat PC-12 cells at 10 to 30 uM for 4 hrs followed by exposure to 6-OHDA measured after 24 hrs by MTT assay. Type of test: functional, cell-based. To be noted: dose 10-30 µM, time 28.0 hrs.
Test [4] relates to PC-12. As to the kind of experiment: Neuroprotective activity against 6-OHDA-induced cytotoxicity in rat PC-12 cells at 0.1 to 30 uM for 4 hrs followed by exposure to 6-OHDA measured after 24 hrs by MTT assay relative to control. As to conditions: dose 0.1-30 µM, time 28 hrs. Type of test: functional.
In test [5] the test system is PC-12. As to the kind of experiment: Neuroprotective activity against 6-OHDA-induced cytotoxicity in rat PC-12 cells for 4 hrs followed by exposure to 6-OHDA measured after 24 hrs by MTT assay. Type of test: functional, cell-based. To be noted: dose 0.1-30 µM, time 28.0 hrs.
Test [6] concerns PC-12. As to the kind of experiment: Neuroprotective activity against 6-OHDA-induced cytotoxicity in rat PC-12 cells at 30 uM for 4 hrs followed by exposure to 6-OHDA measured after 24 hrs by MTT assay. As to conditions: time 28.0 hrs. Type of test: functional, cell-based.
Test [7] deals with PC-12. As to the kind of experiment: Cytotoxicity in rat PC-12 cells assessed as cell viability measured at 30 uM for 24 hrs by MTT assay. In kind it is functional, cell-based.

Active and inactive are the calls of the source. No cut-off for these calls is given here.

On to `CC1(C)Oc2c(c(O)cc3occ(-c4cccc(C#N)c4)c(=O)c23)CC1O` (stereo not drawn), for which the outcome in the test on PC-12 [1] was Active. The same measure, in the same setting: then `CC1(C)Oc2c(c(O)cc3occ(-c4ccc(F)cc4)c(=O)c23)CC1O` (stereo not drawn), with “Active”.

For the compound `CC1(C)Oc2c(c(O)cc3occ(-c4ccccc4)c(=O)c23)CC1O` (stereo not drawn), the results for the Activity with PC-12 [2] and in the test with PC-12 [5] were 75% and “Dose-Dependent Effect”, respectively. Besides, the outcome with PC-12 [3] and in the test with PC-12 [6] was Active. Further, in the test with PC-12 [1], the outcome was inactive. Moreover, the “inhibition (INH)” value in the test with PC-12 [4] was found to be 49.9%. Regarding `CC1(C)Oc2c(c(O)cc3occ(-c4cccs4)c(=O)c23)CC1O` (stereo not drawn), the outcome with PC-12 [6] was inactive.

As for `CC1(C)Oc2c(c(O)cc3occ(-c4ccncc4)c(=O)c23)CC1O` (stereo not drawn), in the test on PC-12 [7], the outcome was Active. `COc1ccc(-c2coc3cc(O)c4c(c3c2=O)OC(C)(C)C(O)C4)cc1OC` (stereo not drawn): the result in the test with PC-12 [3] and in the test on PC-12 [1] was inactive. Regarding `CC1(C)Oc2c(c(O)cc3occ(-c4ccc(OC(F)(F)F)cc4)c(=O)c23)CC1O` (stereo not drawn), the outcome with PC-12 [1] was Active. For the compound `CC1(C)Oc2c(c(O)cc3occ(-c4ccc(C(F)(F)F)cc4)c(=O)c23)CC1O` (stereo not drawn), the result in the test with PC-12 [1] was Active.

In the case of `CC1(C)Oc2c(c(O)cc3occ(-c4cc(F)cc(F)c4)c(=O)c23)CC1O` (stereo not drawn), the result in the test with PC-12 [3] was inactive. Further, in the test with PC-12 [1], the result was Active.

Consider `Cc1cc(-c2coc3cc(O)c4c(c3c2=O)OC(C)(C)C(O)C4)ccc1F` (stereo not drawn), for which, in the test with PC-12 [3], the result was inactive. The outcome in the test on PC-12 [1] was Active.
